Experimental data reported in patent publication US20140045809A1, “CORROLES FOR NEUROPROTECTION AND NEURORESCUE” (priority 2008, published 2014).
Read-outs that look alike come from different tables or passages of the source.

Columns and labels:
RIN-m cells [1] = assay: Protection of RIN-m beta cells against H2O2 toxicity (MTT); format: cell-based, rat; conditions: 20 μM, 30 min before 35 μM H2O2, 24 h
Experimental: Two insulin-secreting beta cell lines, rat insulinoma (INS-1E) and RIN-m cells, were used to examine the protective effect of corrole 1C-Fe. The cells were cultured at 37° C., in a humid 5% CO2, 95% air environment in regular RPMI-1640 medium (Invitrogen) supplemented with 5% fetal calf serum (FCS).
After 2 days of culture, RIN-m cells (5×10^4 cells/well in 96-well plates) were treated with corrole 1C-Fe (1-50 μM) before addition of 35 μM of H2O2. Cell viability was evaluated by a colorimetric assay for mitochondrial function estimation using the MTT test as previously described (Gassen et al., 1998) and expressed as percentage of control.
RIN-m cells were grown as described in Example 5. After 3 days of culture, RIN-m cells (2.5×10^4 cells/well in 96-well plates) were treated with corroles 1C-Fe or 5C-Fe or porphyrin 1P-Fe (1 and 20 μM), added 30 min prior to treatment with 35 μM H2O2 and further incubated for 24 h. Cell injury was evaluated by MTT test. […] […].
Protective effect of iron(III) corrole complexes against H2O2-induced toxicity (150 μM) was compared to that of manganese(III) corroles and related porphyrin. […].

INS-1E cells = assay: Protection of INS-1E cells against SIN-1 toxicity (MTT); format: cell-based, rat; conditions: 10 μM, 30 min before SIN-1 (500 or 600 μM), 24 h
Experimental: (§1) INS-1E cells or RIN-m cells were cultured in RPMI with low serum content (2% FCS), placed in microtiter plates (96 wells) at a density of 2.5×10^4 cells/well and allowed to attach for 24 h before treatment. Corroles 1C-Fe and 5C-Fe (10 μM) were added 30 min prior to insult with the nitric oxide donor SIN-1 (500 or 600 μM) for a subsequent 24 h period. Cell viability was evaluated by a colorimetric assay for mitochondrial function using 3-(4,5-dimethylthiazol-2-yl)-2,5-diphenyltetrazolium bromide (MTT test), and expressed as percentage of untreated control. Values higher than 100% reflect increased mitochondrial activity induced by the drug. The results represent the mean±SEM of three independent experiments performed under the same conditions.

RIN-m cells [2] = assay: Protection of RIN-m cells against SIN-1 toxicity (MTT); format: cell-based, rat; conditions: 10 μM, 30 min before SIN-1 (500 or 600 μM), 24 h
Experimental: as §1
Insulin-secreting RIN-m cells were incubated in RPMI with low serum content (2% FCS) and placed in microtiter plates (96 wells) at a density of 2.5×10^4 cells/well and allowed to attach for 24 h before treatment. Cells were treated with corroles 1C-Fe, 1C-Mn or 2C-Mn or porphyrins 1P-Fe or 2P-Mn, in various concentrations (0.1-20 μM), for 30 min prior to insult with SIN-1 (800 μM) for a subsequent 24 h period. Cell viability was evaluated by MTT test and expressed as percentage of untreated control.

SH-SY5Y cells [3] = format: cell-based
Experimental: Human neuroblastoma cell line was also examined under conditions similar to RIN-m cells to reveal the corrole's ability to prevent neuronal death caused by oxidative stress. SH-SY5Y cells were plated in microtiter plates (96 wells) in DMEM-Eagle/F-12(HAM) (1:1), containing 10% FCS. To examine neuroprotective effect, SH-SY5Y cells were treated for 30 min with corroles 1C-Fe and 5C-Fe (20 and 50 μM) before addition of 20 μM H2O2 for 24 h. To examine neurorescue, SH-SY5Y cells were first exposed to 20 μM H2O2 for 0.5 h, 1.5 h or 3 h, followed by the addition of corroles 1C-Fe and 5C-Fe (20 μM) and incubation for 24 h.
Compounds 1C-Fe and 1P-Fe (1-50 μM) were added 30 min before insult with H2O2 (200 μM), followed by a subsequent 24 h period. The neuroprotective effects of the iron corrole 1C-Fe and its structurally analogous iron porphyrin 1P-Fe, against H2O2-induced neurotoxicity were investigated using MTT reduction assay and cell death ELISA, based on the use of mouse monoclonal antibodies to detect free histones and fragmented DNA (F. Hollderieder et al, Biochemica 2002, 1, 25). […] In light of the observed neuroprotective effect of corrole 1C-Fe, we attempted to determine the length of the delay between H2O2 exposure and corrole 1C-Fe treatment that would still afford neuroprotection. H2O2 was administered to SH-SY5Y cells and corrole 1C-Fe was then added for 0.5-1.5 h thereafter. […]

SH-SY5Y cells [4] = assay: Neuroprotection/neurorescue against SIN-1-induced cell death in SH-SY5Y cells; format: cell-based, human; conditions: 24 h (Example 11)
Experimental: SH-SY5Y cells were cultured in DMEM-Eagle/F-12(HAM) (1:1) containing 10% FCS. Cells were resuspended in medium containing 2% FCS, seeded in microtiter plates (96 wells) and allowed to attach for 24 h before initiation of treatment. […]

SH-SY5Y cells [5] = format: cell-based; conditions: 24 h
Experimental: SH-SY5Y cells were cultured in DMEM-Eagle/F-12(HAM) (1:1) containing 10% FCS. Cells were resuspended in medium containing 2% FCS, seeded in microtiter plates (96 wells) and allowed to attach for 24 h. To examine the neuroprotective effect, cells were pretreated for 30 min with corroles 1C-Fe and 5C-Fe (1-20 μM), and were then exposed to 6-OHDA (60 μM) for further 24 h. For neurorescue assessment, SH-SY5Y cells were first treated with 6-OHDA (60 μM) for 0.5 h, 1.5 h, 3 h and 6 h followed by the addition of compounds 1C-Fe and 5C-Fe (10 μM) for further 24 h.
SH-SY5Y cells were pretreated with or without corroles 1C-Fe, 2C-Mn and 3C-Mn and porphyrins 1P-Fe and 2P-Mn (20 μM), 30 min before exposure to 6-OHDA (40 μM) for a subsequent 24 h period. Cell viability was evaluated by MTT test and cell death was assessed using the apoptotic cell death detection ELISA kit. For neurorescue, SH-SY5Y cells were first exposed to 40 μM 6-OHDA for 0.5. 1, 1.5 and 3 h, followed by the addition of the compounds 1C-Fe, 2C-Mn and 3C-Mn (20 μM) and incubated for further 24 h. Growth-associated protein (GAP-43) was detected by fluorescence microscopy using a specific primary antibody. Apoptotic nuclei were determined by terminal deoxynucleotidyl transferase-mediated UTP-digoxigenin nick end labeling analysis. 4′,6-Diamidino-2-phenylnidole (DAPI) staining was applied for nuclear labeling. […]

NSC-34 G93A cells = assay: Cell culture model of familial ALS, NSC-34 cells expressing mutant G93A-SOD1; format: cell-based, mouse; conditions: 48 h induction; even at a concentration as low as 0.5 μM
Experimental: Mutant-superoxide dismutase (G93A-SOD1) is associated with familial amyotrophic lateral sclerosis (FALS). A cell culture model of FALS was implemented by stably transfecting mouse motoneuronal NSC-34 cells or SH-SY5Y cells, to express mutant G93A-SOD1 at levels approximating those seen in the human disease. NSC-34 cells or SH-SY5Y cells were incubated in Dulbecco's modified Eagle's/F-12 medium supplemented with 10% FCS tetracycline-free (FCS Tet-free; Clontech), at 37° C. in an atmosphere of 5% CO2 in air. These cell lines are stably transfected with the pTet-ON plasmid (Clontech, Palo Alto, Calif.) coding for the reverse tetracycline controlled transactivator (rtTA). Induction of mutant SOD1 expression was obtained by shifting nonconfluent cultures into growth medium containing 1% N2 supplement (Invitrogen, Carlsbad, Calif.) and […] doxocyclin for 48 h in the presence or absence of corrole 1C-Fe and 5C-Fe.

[6] = tested on: nigral dopaminergic neurons; conditions: MPTP model, also given post-MPTP; Gal et al., 2005; cited from earlier work
MAO-A = biological target: T1, MAO-A (Mus musculus, UniProt Q64133); conditions: Gal et al., 2005, cited from earlier work
T1 construct: host or cells: brain and peripheral organs of treated animals
T1 sequence (Q64133 1-526): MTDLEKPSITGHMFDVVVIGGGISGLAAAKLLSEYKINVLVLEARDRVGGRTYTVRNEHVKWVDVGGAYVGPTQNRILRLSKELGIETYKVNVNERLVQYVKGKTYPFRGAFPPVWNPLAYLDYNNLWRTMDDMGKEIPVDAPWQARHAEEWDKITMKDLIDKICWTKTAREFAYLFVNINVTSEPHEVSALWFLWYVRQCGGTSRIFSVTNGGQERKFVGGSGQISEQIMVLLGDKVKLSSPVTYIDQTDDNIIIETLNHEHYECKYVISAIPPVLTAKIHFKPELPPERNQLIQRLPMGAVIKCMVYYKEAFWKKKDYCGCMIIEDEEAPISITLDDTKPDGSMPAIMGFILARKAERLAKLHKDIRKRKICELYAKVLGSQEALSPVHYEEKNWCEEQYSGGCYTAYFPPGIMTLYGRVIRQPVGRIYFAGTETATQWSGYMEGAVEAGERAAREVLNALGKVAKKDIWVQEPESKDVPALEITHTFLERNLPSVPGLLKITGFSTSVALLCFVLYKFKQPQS

MAO-B = biological target: T2, MAO-B (Mus musculus, UniProt Q8BW75); conditions: Gal et al., 2005, cited from earlier work
T2 construct: host or cells: brain and peripheral organs of treated animals
T2 sequence (Q8BW75 1-520): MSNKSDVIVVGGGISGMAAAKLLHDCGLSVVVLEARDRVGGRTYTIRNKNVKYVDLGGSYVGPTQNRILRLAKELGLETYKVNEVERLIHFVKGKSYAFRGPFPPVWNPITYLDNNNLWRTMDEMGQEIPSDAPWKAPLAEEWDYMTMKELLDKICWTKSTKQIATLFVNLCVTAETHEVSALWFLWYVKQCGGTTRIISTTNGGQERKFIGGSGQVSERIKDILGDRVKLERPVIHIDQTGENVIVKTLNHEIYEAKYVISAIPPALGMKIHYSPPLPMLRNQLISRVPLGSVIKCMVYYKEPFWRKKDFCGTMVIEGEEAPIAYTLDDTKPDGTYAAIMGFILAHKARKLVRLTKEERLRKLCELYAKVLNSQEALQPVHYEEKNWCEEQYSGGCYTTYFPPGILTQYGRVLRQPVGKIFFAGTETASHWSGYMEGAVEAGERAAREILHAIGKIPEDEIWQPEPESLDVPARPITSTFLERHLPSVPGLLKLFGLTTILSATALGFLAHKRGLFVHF

Row | SMILES | protective effect against H2O2 toxicity relative to porphyrin 1P-Fe (MTT) (RIN-m cells [1]) | protective effect against SIN-1 induced toxicity (MTT) (INS-1E cells) | protective effect against SIN-1 induced toxicity (MTT) (RIN-m cells [2]) | neurorescue after H2O2 insult (SH-SY5Y cells [3]; 20 μM H2O2 for 0.5, 1.5 or 3 h, then 20 μM corrole, 24 h) | neuroprotective effect against H2O2-induced toxicity (SH-SY5Y cells [3]; 20 and 50 μM, 30 min before 20 μM H2O2, 24 h) | neurorescue after SIN-1 insult (SH-SY5Y cells [4]; 20 μM added 0.5, 1.5 or 3 h after insult) | neuroprotective effect against SIN-1 induced toxicity (SH-SY5Y cells [4]; 10 and 20 μM, 30 min pretreatment) | neuroprotective effect against 6-OHDA-induced toxicity (SH-SY5Y cells [5]; 1-20 μM, 30 min before 6-OHDA (60 μM)) | neurorescue after 6-OHDA insult (SH-SY5Y cells [5]; 6-OHDA (60 μM) for 0.5, 1.5, 3 and 6 h, then 10 μM) | cell viability of induced mutant cells (NSC-34 G93A cells) | neuroprotection and restoration of nigral dopaminergic neurons [6] | MAO-A inhibition (MAO-A; in peripheral organs) | MAO-A inhibition (MAO-A; in the brain) | MAO-B inhibition (MAO-B; in peripheral organs) | MAO-B inhibition (MAO-B; in the brain)
1 | O=C(O)CNS(=O)(=O)c1cc2[n]3c1C(c1c(F)c(F)c(F)c(F)c1F)=C1C=CC4=[N+]1[Fe-]31[n]3c(cc(S(=O)(=O)NCC(=O)O)c3-2)C(c2c(F)c(F)c(F)c(F)c2F)=c2ccc([n]21)=C4c1c(F)c(F)c(F)c(F)c1F (stereo not shown) [5C-Fe, 2,17-bis(N-sulfonylglycine)-5,10,15-tris(pentafluoro-phenyl)-corrolato iron(III)] | exhibit a greater protective effect | marked protective effect | marked protective effect | instigated neurorescue | dose-dependent neuroprotective effect | instigated neurorescue | dose-dependent neuroprotective effect | dose-dependent neuroprotective effect | instigated neurorescue | significantly improved cell viability | – | – | – | – | –
2 | C#CCN(C)Cc1ccc(O)c2ncccc12 [M-30] | – | – | – | – | – | – | – | – | – | – | neuroprotective and also have the ability to restore nigral dopaminergic neurons when given post-MPTP | poorly | potently inhibits | poorly | potently inhibits
3 | C#CCN[C@@H]1CCc2ccccc21 [rasagiline] | – | – | – | – | – | – | – | – | – | – | neuroprotective and also have the ability to restore nigral dopaminergic neurons when given post-MPTP | – | – | – | –
